In patent publication US8344115B2, “Immunoassay for specific determination of S-adenosylmethionine and analogs thereof in biological samples” (priority 2008, dated 2013):

Tested on: Rabbit antiserum (raised against AdaM-BSA)
Test: Assay 1: end point competitive ELISA with rabbit antibody and antibody specificity (goat anti-rabbit strips, AdaM-HRP conjugate)
Assay type: binding
Conditions: rabbit antiserum 1:12,500, duplicate
Protocol: New Zealand White rabbits were used for polyclonal antibody production. Immunization (1 ml total volume) was carried out with subcutaneous injections at multiple sites. Initial injection utilizes 1:1 mixture of complete Freund Adjuvant and AdaM-BSA conjugate solution in PBS upon emulsification. Subsequent injections use incomplete Freund adjuvant. The immunization was on 21 days cycle schedule, the animals were bleed from the ear artery (rabbit sedated) between 7 to 14 days after injection, normally on the 10th day. The blood was then processed to serum via centrifugation to remove red blood cells and clots. Immune response was detected after three booster injections. See FIG. 1 for a typical positive antibody response (indicated by antibody titer determination) wherein NA005 and 006 are animal designation numbers, 0 represents pre-bleed, 1 represents the first bleed after 4 immunizations.
4-1. Assay 1 Assay (End Point) with Rabbit Antibody and Antibody Specificity
• 1. Goat anti-rabbit coated microtiter well strips. • 2. —Rabbit antiserum diluted in incubation buffer (IB: 10 mM phosphate, 150 mM NaCl, 0.2% BSA, 0.1% Tween 20, 0.1% Proclin, pH 7.4) • 3. An IB+Tris (100 mM) buffer, pH 8.5 • 4. Samples: • (a) SAMe toluenesulfonate (tosylate) disulfate at concentration from […] to 1.4×10^−5 M in IB containing BSA 0.5%, and use 0.5% BSA-IB as zero sample. • (b) SAH at concentration from zero and 1.4×10^−8 to 1.4×10^−4 M. • (c) Adenosine at concentration from zero and 5.6×10^−9 M. to 5.6×10^−5 M • (d) Guanosine at concentration from zero and 3.0×10^−9 M to 3.0×10^−5 M • 5. AdaM-HRP conjugate (diluted to HRP concentration @30 μg/mL) in IB. • 6. —HRP substrate: one reagent substrate solution NeA-blue Tetramethylbenzidine Substrate, Clinical Science Products, Inc., Mansfield, Mass. • 7. 1N phosphoric acid Procedure: • 1. —The rabbit antiserum was diluted 1:12,500 in IB and pre-incubated (60 μl/well) in goat-antirabbit coated strips for at least one hour. • 2. Excess antibody was then decanted, washed, and blot dry. • 3. To each well was then added 10 μl of the pH 8.5 IB+Tris buffer followed by 25 μl of samples. The mixture was incubated on a orbital shaker for 25 min. All samples were tested in duplicate except the zero sample, in 6 wells. • 4. Twenty five microliter (25 μl) of AdaM-HRP conjugate solution was then added and incubated for additional 25 min with shaking. • 5. The assay mixture was then decanted, washed, and blot dry. • 6. To each well was added 60 μl/well of HRP substrate and incubate for 15 min. • 7. Stop the substrate development with 120 μl/well of 1N phosphoric acid. • 8. Read OD450 on a Perkin Elmer Lambda (microtiter plate) Reader. Results: (See Table 1 below)

`Nc1ncnc2c1ncn2[C@@H]1O[C@H](CO)[C@@H](O)[C@H]1O` [Adenosine] was tested, and the OD450 (sample concentration 5.6E−5 (M)) was 0.256, the OD450 (sample concentration 5.6E−6 (M)) was 0.300 and the OD450 (sample concentration 5.6E−7 (M)) was 0.305. For the same compound, the OD450 (sample concentration 5.6E−8 (M)) was 0.339 and the OD450 (sample concentration 5.6E−9 (M)) was 0.342.
`Nc1nc2c(ncn2[C@@H]2O[C@H](CO)[C@@H](O)[C@H]2O)c(=O)[nH]1` [Guanosine] showed an OD450 (sample concentration 3.0E−5 (M)) of 0.371, an OD450 (sample concentration 3.0E−6 (M)) of 0.383 and an OD450 (sample concentration 3.0E−7 (M)) of 0.374. The OD450 (sample concentration 3.0E−8 (M)) was 0.324 and the OD450 (sample concentration 3.0E−9 (M)) was 0.350.
`Nc1ncnc2c1ncn2[C@@H]1O[C@H](CSCC[C@H](N)C(=O)O)[C@@H](O)[C@H]1O` [SAH, S-Adenosylhomocysteine] gave an OD450 (sample concentration 1.4E−4 (M)) of 0.209, an OD450 (sample concentration 1.4E−5 (M)) of 0.244 and an OD450 (sample concentration 1.4E−6 (M)) of 0.293. It also gave an OD450 (sample concentration 1.4E−7 (M)) of 0.323 and an OD450 (sample concentration 1.4E−8 (M)) of 0.337.
